Reference: patent publication US11008311B2, “Potassium salt of benzimidazole compound and preparation method therefor, composition and application thereof” (WUHAN LL SCIENCE AND TECHNOLOGY DEVELOPMENT CO., LTD., priority 2016, dated 2021)
Converted amounts (≈) assume the structure as drawn.

Experiments:
[1] = tested on: spontaneously hypertensive rats; experiment: Antihypertensive efficacy test in spontaneously hypertensive rats (systolic blood pressure and heart rate by implanted blood pressure sensor); format: in vivo, rat; conditions: SHR, intragastric, 1 mg/kg as azilsartan; for Change in heart rate / Changes in systolic blood pressure: mean ± standard error
Experimental: 12-week-old spontaneously hypertensive rats (hereinafter referred to as SHR, purchased from Beijing Vital River Laboratory Animal Technology Co., Ltd.) were anesthetized with 2.5% sodium pentobarbital for intraperitoneal injection. The blood pressure sensing catheter of a blood pressure implant was inserted into the abdominal aorta, the implant was fixed to the abdominal wall, and the postoperative daily care was performed after suturing. Animals with systolic blood pressure exceeding 160 mmHg were selected into a total of 3 groups with 8 animals in each group. The control group was given 0.5% CMC-Na (sodium carboxymethylcellulose); in the OR01019 group and the QR01019K group, the compounds were dissolved in 0.5% CMC-Na, and the doses were all administered at an effective dose of 1 mg/kg of azilsartan with an administration volume of 4 mL/kg by intragastric administration. The systolic blood pressure and heart rate of the animals before the administration were used as reference values, and the changes of systolic blood pressure and heart rate of SHR at each time point before and after administration were compared, in which the systolic blood pressure and heart rate of SHR were measured three times at each time point and then averaged.

[2] = Determination of equilibrium solubility; format: physicochemical; conditions: for solubility thermodynamic at 24 h: 37 °C, thermodynamic from solid, 37±2° C., based on azilsartan
[3] = before administration (reference value)
[4] = aqueous buffer, pH 4.5 (acetate buffer)
[5] = aqueous buffer, pH 6.8 (phosphate buffer)
[6] = aqueous buffer, pH 7.8 (phosphate buffer)
[7] = simulated gastric fluid, pH 1.0 (hydrochloric acid solution)

Row | SMILES | Change in heart rate ([1]; 1 hour after administration) [times/minute] | Changes in systolic blood pressure ([1]; 1 hour after administration) [mmHg] | Change in heart rate ([1]; 3 hours after administration) [times/minute] | Changes in systolic blood pressure ([1]; 3 hours after administration) [mmHg] | Change in heart rate ([1]; 5 hours after administration) [times/minute] | Changes in systolic blood pressure ([1]; 5 hours after administration) [mmHg] | Change in heart rate ([1]; 7 hours after administration) [times/minute] | Changes in systolic blood pressure ([1]; 7 hours after administration) [mmHg] | Change in heart rate ([1]; 10 hours after administration) [times/minute] | Changes in systolic blood pressure ([1]; 10 hours after administration) [mmHg] | Change in heart rate ([1]; 24 hours after administration) [times/minute] | Changes in systolic blood pressure ([1]; 24 hours after administration) [mmHg] | Change in heart rate [1, 3] [times/minute] | Changes in systolic blood pressure [1, 3] [mmHg] | solubility thermodynamic at 24 h [2, 4] [µg/mL] | solubility thermodynamic at 24 h [2, 5] [µg/mL] | solubility thermodynamic at 24 h [2, 6] [µg/mL] | solubility thermodynamic at 24 h [2, 7] [µg/mL] | solubility thermodynamic at 24 h ([2]; Pure water) [µg/mL] | further results
1 | CCOc1nc2cccc(C(=O)OC(C)OC(=O)OCc3nc(C)c(C)nc3C)c2n1Cc1ccc(-c2ccccc2-c2noc(=O)[nH]2)cc1 (centres unmarked) [QR01019, reference compound] | −3.4 ± 2.6 | −4.9 ± 4.8 | −2.33 ± 2.6 | −22.0 ± 3.6 | −6.5 ± 2.8 | −30.5 ± 3.5 | −6.2 ± 3.0 | −38.8 ± 2.3 | −12.3 ± 2.8 | −33.0 ± 1.7 | −6.7 ± 2.6 | −10.2 ± 2.1 | 0.0 ± 0.0 | 0.0 ± 0.0 | 0.06 (≈ 0.0884 µM) | 1.6 (≈ 2.36 µM) | 13.6 (≈ 20 µM) | 2.01 (≈ 2.96 µM) | 0.74 (≈ 1.09 µM) | 
2 | CCOc1nc2cccc(C(=O)OC(C)OC(=O)OCc3nc(C)c(C)nc3C)c2n1Cc1ccc(-c2ccccc2-c2noc(=O)[n-]2)cc1.[K+] (centres unmarked) [QR01019K] | −3.6 ± 2.4 | −7.0 ± 3.4 | −5.0 ± 2.5 | −34.3 ± 1.9 | −10.1 ± 3.0 | −46.5 ± 2.5 | −17.5 ± 3.0 | −49.4 ± 4.1 | −25.4 ± 2.4 | −45.3 ± 3.3 | −28.6 ± 8 | −25.9 ± 3.4 | 0.0 ± 0.0 | 0.0 ± 0.0 | 2.3 | 25.9 | 400 | 18.7 | 542 | antihypertensive effect compared with QR01019 (in words) [1]: more potent and longer-lasting antihypertensive effect than QR01019; effect of reducing heart rate compared with QR01019 (in words) [1]: more potent and longer-lasting effect of reducing heart rate than QR01019; concentrations in acidic and neutral media compared with QR01019 (in words) ([2]; equilibrium solubility, Table 5): much higher than QR01019
